Like-named read-outs stand apart in the source and are kept apart here.

In test [1] the test system is SDH-KO-HRAS cells (SDHB-deficient). As to the kind of experiment: Cellular / differential toxicity assay (CellTiter-Glo, 3 days). It counts as cell-based, murine. Particulars: for EC50: Mus musculus, 72 h. The essentials: (§1)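 Isogenic SDHB-deficient (HRAS-transformed SDH-KO) and SDH-WT cells grown in DMEM-F12 with 1 mM glutamine and 3% FBS, plated with compound (10-point dilution from 10 uM to 0.0065 uM or lower) for 3 days at 37 °C, 5% CO2. Viability by CellTiter-Glo luminescence; EC50 calculated.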
For orientation: Cellular ATP, detected with luciferase, serves as a proxy for viable cell number.

The next test has as its system SDH-WT cells. Described as above. It counts as cell-based, murine. As to conditions: for EC50: Mus musculus, 72 h. The method, boiled down: as §1
The test system of test [2] is ACHN SDHB −/− (SDHB CRISPRed out). Description: Cell viability in SDH-deficient/proficient isogenic pairs. Format: cell-based. As to the method: (§2) The cells were grown in DMEM F12 supplemented with 1 mM Glutamine+3% FBS were treated with different concentrations of the indicated compounds. Cell viability was determined 72 hours later by CellTiter Glue reagent (Promega), the luminescence was measured with ClarioStar reader (BMG) and the EC50s were calculated by Prism. Murine SDHB-WT/KO, HRAS transformed isogenic pair (FIG. 12A); UOK269, Human Tumor-derived SDHB-deficient RCC in their WT counterpart with re-expression of SDHB (FIG. 12B); and ACHN, RCC cells, and their SDHB-KO (SDHB CRISPRed out) isogenic cells (FIG. 12C).

The subject of the next test is ACHN WT, RCC cells. The test is described as above. Format: cell-based. The procedure: as §2
Setting [3] is: Homo sapiens, cancer cells, 72 hours.

On to `CC1(C)Cc2nc3sc4c(NCCc5ccc6[nH]cnc6c5)ncnc4c3cc2CO1` [Compound 145], for which the “Ratio BAY-876/COMP 145” value is recorded as 0.8 in test [1] (Murine SDH-KO); 0.4 with SDH-WT cells (Murine SDH-WT); 30 in test [2]; 1.7 in the test on ACHN WT, RCC cells. The EC50 is 0.0012 µM in test [1] (Murine SDH-KO, transformed, 72 hours, Example 8, read-out: EC50); 0.0018 µM in test [1] (SDH-KO cells, 72 hours, Example 7, read-out: EC50 Tox); under 1 µM in test [1] (toxicity, SDH-KO cells, 3 days, CellTiter-Glo, read-out: EC50 (uM) SDH-KO-HTAS-C17); 0.34 µM with SDH-WT cells (Murine SDH-WT, transformed, 72 hours, Example 8, read-out: EC50); 0.139 µM in the test with SDH-WT cells (SDH-WT cells, 72 hours, Example 7, read-out: EC50 Tox); under 1 µM in the test with SDH-WT cells (toxicity, SDH-WT cells, 3 days, CellTiter-Glo, read-out: EC50 (uM) SDH-WT). Besides, the EC50 in test [2] (setting [3]) was found to be 8.4 nM; in the test with ACHN WT, RCC cells (setting [3]), 13800 nM. For the same molecule, in test [1] (cell viability, Example 7), the “differential effect between SDH-WT and KO cells (EC50 Tox)” value was “around 80 folds”.

The EC50 is the midpoint of the concentration-response curve.

For the origin of these results see patent US20230084927A1, “GLUCOSE UPTAKE INHIBITORS AND USES THEREOF” (METABOMED LTD., priority 2019, published 2023).
